Read-outs that look alike come from different tables or passages of the source.
What was measured:
[1] = target: one or more of HDAC-1, HDAC-2, HDAC-3, HDAC-4, HDAC-5, HDAC-6, HDAC-7, HDAC-8, HDAC-9, HDAC-10 and HDAC-11; assay: Inhibition of Histone Deacetylase Enzymatic Activity (Boc-Lys(Ac)-AMC substrate, Fluor-de-Lys developer); format: biochemical; details: read-out: HDAC Inhibition (IC50 μM) HDAC Enzyme
Description: The following protocol is used to assay the compounds of the disclosure.
The mixture is pre-incubated for 5 minutes at room temperature. The reaction is started by bringing the temperature to 37° C. and adding 16 μl substrate. Total reaction volume is 50 μl.
In the Tables 8, 9 and 10, A≦0.05 μM; 0.05 μM<B≦0.1 μM; 0.1 μM<C≦1 μM; and 1 μM<D≦10 μM.

[2] = test system: HDAC activity in primary mouse cortical cultures; assay: Whole-Cell Histone Deacetylase (HDAC) Inhibition Assay in Primary Mouse Cortical Cultures; format: cell-based
Description: Primary neocortical cultures are established through the dissection of the neocortex from E17 embryos harvested from time-pregnant Balb/C mice. Following dissection, the neocortical tissue specimens undergo digestion by incubation at 37° C. for 10 minutes in dissection medium (1×HBSS/10 mM HEPES/1 mM Sodium Pyruvate) supplemented with (0.25%) Trypsin and (0.1%) DNase I. Digested tissue is washed and resuspended in plating medium (NeuroBasal/10% HS/0.5 mM L-Glutamine (Invitrogen Corporation)) for trituration. Additional plating medium is added, and the contents are passed over a 70 um cell-strainer. The cell-density is quantified using a hemacytometer, and dilutions are made to allow for the plating of 50000 cells/well/100 uL in 96-well PDL-coated plates. Plates are incubated for 4-5 hours in 37° C./5% CO2-incubator, after which time the entire volume is exchanged to feeding medium (NeuroBasal/2% B-27 Serum-free supplement/0.5 mM L-Glutamine/1% Penicillin-Streptomycin (Invitrogen Corporation)). The cultures undergo two 50% fresh feeding medium exchanges at 3 days in vitro (DIV3), and again at DIV7.
Compounds for testing are resuspended in dimethyl sulphoxide (DMSO), and further diluted in DMSO for a ten-point dose-response curve, with appropriate controls. Each master plate is assayed in triplicate. […] Three DIV9 culture plates are leveled to 50 uL/well, onto which each has overlaid 50 uL/well of the diluted daughter plate. The plates are returned to the 37° C./5% CO2-incubator for 16-18 hours.
The next step of the assay involves the exposure of a HDAC colorimetric substrate, comprising an acetylated lysine side chain, to the compound-treated neuronal cultures. Based on the ability of the compound to inhibit HDAC activity in the neuronal cultures, the substrate is deacetylated by HDACs, and subsequently sensitized. […] Compound-incubated culture plates are again leveled to 50 uL/well and 2 uL/well of 7.5 mM BOC-Lys (Ac)-AMC substrate is added and thoroughly mixed. Plates are returned to the 37° C./5% CO2-incubator for 1 hour.
The final addition to the culture plates entails treatment with a Fluor de Lys™-based developer (BIOMOL Research Laboratories, Inc.) to produce a fluorophore, which is analyzed using a spectrophotometer. The developer solution (1×Fluor de Lys™/1% NP-40/1 uM TSA in HDAC Buffer Solution) is prepared, and 50 uL/well is added to each of the wells of the culture plates. […] The plates are returned to the 37° C./5% CO2-incubator for 10-15 minutes, after which time, they are removed and set in the dark at room temperature for 5-10 minutes.
Primary neocortical cultures were established through the dissection of the neocortex from E17 embryos harvested from time-pregnant Balb/C mice. Following dissection, the neocortical tissue specimens underwent digestion by incubation at 37° C. for 10 minutes in dissection medium (1×HBSS/10 mM HEPES/1 mM Sodium Pyruvate) supplemented with (0.25%) Trypsin and (0.1%) DNase I. Digested tissue was washed and resuspended in plating medium (NeuroBasal/10% HS/0.5 mM L-Glutamine (Invitrogen Corporation)) for trituration. Additional plating medium was added, and the contents passed over a 70 um cell-strainer. The cell-density was quantified using a hemacytometer, and dilutions made to allow for the plating of 50000 cells/well/100 uL in 96-well PDL-coated plates. Plates were incubated for 4-5 hours in 37° C./5% CO2-incubator, after which time the entire volume was exchanged to feeding medium (NeuroBasal/2% B-27 Serum-free supplement/0.5 mM L-Glutamine/l % Penicillin-Streptomycin (Invitrogen Corporation)). The cultures underwent two 50% fresh feeding medium exchanges at 3 days in vitro (DIV3), and again at DIV7.
Compounds for testing were resuspended in dimethyl sulphoxide (DMSO), and further diluted in DMSO for a ten-point dose-response curve, with appropriate controls. Each master plate was assayed in triplicate.

[3] = whole-cell (WC), mouse cortical neurons, Table 10, read-out: HDAC Inhibition (IC50 μM) WC mouse cortical neurons
[4] = whole-cell (WC), mouse cortical neurons, Table 9, read-out: HDAC Inhibition (IC50 μM) WC mouse cortical neurons
[5] = whole-cell (WC), mouse cortical neurons, Table 8, read-out: HDAC Inhibition (IC50 μM) WC mouse cortical neurons

Compound	IC50 ([1]; Table 10) [µM]	IC50 [2, 3] [µM]	IC50 ([1]; Table 9) [µM]	IC50 [2, 4] [µM]	IC50 ([1]; Table 8) [µM]	IC50 [2, 5] [µM]	other results
O=C(CCCCCCN1Cc2ccccc2Oc2ccccc21)NO [7-(dibenzo[b,f][1,4]oxazepin-10(11H)-yl)-N-hydroxyheptanamide]	0.1 to 1	> 15					
O=C(CCCCCCC(=O)N1Cc2ccccc2Oc2ccccc21)NO [8-(dibenzo[b,f][1,4]oxazepin-10(11H)-yl)-N-hydroxy-8-oxooctanamide]	0.1 to 1	1 to 5					
O=C(NO)c1cnc(N2C[C@@H]3C[C@H]2CN3C(=O)OCc2ccccc2)nc1 [(1S,4S)-benzyl 5-(5-(hydroxycarbamoyl)pyrimidin-2-yl)-2,5-diazabicyclo[2.2.1]heptane-2-carboxylate]			< 0.05	< 1			
O=C(NO)c1cnc(N2C[C@@H]3C[C@H]2CN3C(=O)OC2CCCC2)nc1 [(1S,4S)-cyclopentyl 5-(5-(hydroxycarbamoyl)pyrimidin-2-yl)-2,5-diazabicyclo[2.2.1]heptane-2-carboxylate]			< 0.05	< 1			
O=C(NO)c1cnc(N2C[C@@H]3C[C@H]2CN3C(=O)OCC2CC2)nc1 [(1S,4S)-cyclopropylmethyl 5-(5-(hydroxycarbamoyl)pyrimidin-2-yl)-2,5-diazabicyclo[2.2.1]heptane-2-carboxylate]			< 0.05	< 1			
CC(C)COC(=O)N1C[C@@H]2C[C@H]1CN2c1ncc(C(=O)NO)cn1 [(1S,4S)-isobutyl 5-(5-(hydroxycarbamoyl)pyrimidin-2-yl)-2,5-diazabicyclo[2.2.1]heptane-2-carboxylate]			< 0.05	< 1			
CC(C)OC(=O)N1C[C@@H]2C[C@H]1CN2c1ncc(C(=O)NO)cn1 [(1S,4S)-isopropyl 5-(5-(hydroxycarbamoyl)pyrimidin-2-yl)-2,5-diazabicyclo[2.2.1]heptane-2-carboxylate]			< 0.05	< 1			
O=C(NO)c1cnc(N2C[C@@H]3C[C@H]2CN3C(=O)OCc2cccnc2)nc1 [(1S,4S)-pyridin-3-ylmethyl 5-(5-(hydroxycarbamoyl)pyrimidin-2-yl)-2,5-diazabicyclo[2.2.1]heptane-2-carboxylate]			< 0.05	< 1			
CC(C)(C)OC(=O)N1C[C@@H]2C[C@H]1CN2c1ncc(C(=O)NO)cn1 [(1S,4S)-tert-butyl 5-(5-(hydroxycarbamoyl)pyrimidin-2-yl)-2,5-diazabicyclo[2.2.1]heptane-2-carboxylate]			< 0.05	< 1			
O=C(NO)c1cnc(N2C[C@@H]3C[C@H]2CN3C(=O)OC2CCOCC2)nc1 [(1S,4S)-tetrahydro-2H-pyran-4-yl 5-(5-(hydroxycarbamoyl)pyrimidin-2-yl)-2,5-diazabicyclo[2.2.1]heptane-2-carboxylate]			< 0.05	< 1			
O=C(NO)c1cnc(N2CCN(C3=Nc4ccccc4Oc4ccc(Cl)cc43)CC2)nc1 [(E)-2-(4-(2-chlorodibenzo[b,f][1,4]oxazepin-11-yl)piperazin-1-yl)-N-hydroxypyrimidine-5-carboxamide]					< 0.05	5 to 15	
O=C(NO)c1ccc(C2=Nc3ccccc3Oc3ccccc32)c(F)c1 [(E)-4-(dibenzo[b,f][1,4]oxazepin-11-yl)-3-fluoro-N-hydroxybenzamide]					1 to 10	5 to 15	
O=C(/C=C/c1ccc(CN2C(=O)CN=C(c3ccccc3)c3ccccc32)cc1)NO [(E)-N-hydroxy-3-(4-(((Z)-2-oxo-5-phenyl-2,3-dihydro-1H-benzo[e][1,4]diazepin-1-yl)methyl)phenyl)acrylamide]	0.05 to 0.1						IC50 ([2]; read-out: HDAC Inhibition (IC50 μM) WC mouse cortical neurons, Table 10): 1 to 5 µM

Second part, led by results:

IC50 ([1]; Table 10) [µM]	IC50 [2, 3] [µM]	IC50 ([1]; Table 9) [µM]	IC50 [2, 4] [µM]	IC50 ([1]; Table 8) [µM]	IC50 [2, 5] [µM]	Compound	other results
0.1 to 1	1 to 5					O=C(CCCCCN1C(=O)c2cccnc2N(C2CC2)c2ccccc21)NO [6-(11-cyclopropyl-5-oxo-5H-benzo[b]pyrido[2,3-e][1,4]diazepin-6(11H)-yl)-N-hydroxyhexanamide]	
0.1 to 1	1 to 5					O=C(CCCCCCN1C(=O)c2ccccc2N(C2CC2)c2ccccc21)NO [7-(5-cyclopropyl-11-oxo-5H-dibenzo[b,e][1,4]diazepin-10(11H)-yl)-N-hydroxyheptanamide]	
0.05 to 0.1	1 to 5					O=C(CCCCCCN1C(=O)c2cccnc2N(C2CC2)c2ccccc21)NO [7-(11-cyclopropyl-5-oxo-5H-benzo[b]pyrido[2,3-e][1,4]diazepin-6(11H)-yl)-N-hydroxyheptanamide]	
0.1 to 1	< 1					O=C(CCCCCCCN1C(=O)c2cccnc2N(C2CC2)c2ccccc21)NO [8-(11-cyclopropyl-5-oxo-5H-benzo[b]pyrido[2,3-e][1,4]diazepin-6(11H)-yl)-N-hydroxyoctanamide]	
< 0.05	< 1					O=C(/C=C/c1ccc(CN2C(=O)c3cccnc3N(C3CC3)c3ccccc32)cc1)NO [(E)-3-(4-((11-cyclopropyl-5-oxo-5H-benzo[b]pyrido[2,3-e][1,4]diazepin-6(11H)-yl)methyl)phenyl)-N-hydroxyacrylamide]	
0.05 to 0.1	1 to 5					O=C(/C=C/c1ccc(CN2c3ccccc3C=Cc3ccccc32)cc1)NO [(E)-3-(4-(((Z)-5H-dibenzo[b,f]azepin-5-yl)methyl)phenyl)-N-hydroxyacrylamide]	
0.1 to 1	5 to 15					O=C(/C=C/c1ccc2c(c1)C=Cc1ccccc1N2CC1CC1)NO [(E)-3-((Z)-5-(cyclopropylmethyl)-5H-dibenzo[b,f]azepin-2-yl)-N-hydroxyacrylamide]	
				0.1 to 1	5 to 15	O=C(NO)c1ccc(CCNC2=Nc3ccccc3Oc3ccccc32)cc1 [(E)-4-(2-(dibenzo[b,f][1,4]oxazepin-11-ylamino)ethyl)-N-hydroxybenzamide]	
				0.1 to 1	5 to 15	O=C(NO)c1ccc(CNC2=Nc3ccccc3N(C3CC3)c3ccccc32)cc1 [(E)-4-((5-cyclopropyl-5H-dibenzo[b,e][1,4]diazepin-11-ylamino)methyl)-N-hydroxybenzamide]	
				< 0.05	< 1	O=C(NO)c1ccc(CNC2=Nc3ccccc3Oc3ccccc32)cc1 [(E)-4-((dibenzo[b,f][1,4]oxazepin-11-ylamino)methyl)-N-hydroxybenzamide]	
				1 to 10	> 15	O=C(NO)c1ccc(C2=Nc3ccccc3Oc3ccccc32)o1 [(E)-5-(dibenzo[b,f][1,4]oxazepin-11-yl)-N-hydroxyfuran-2-carboxamide]	
				< 0.05	1 to 5	O=C(NO)c1ccc(C2=Nc3ccccc3Oc3ccccc32)s1 [(E)-5-(dibenzo[b,f][1,4]oxazepin-11-yl)-N-hydroxythiophene-2-carboxamide]	
				0.1 to 1	5 to 15	O=C(NO)c1ccc(C2=Nc3ccccc3Oc3ccccc32)nc1 [(E)-6-(dibenzo[b,f][1,4]oxazepin-11-yl)-N-hydroxynicotinamide]	
